Each compound was assayed on Tylonycteris bat coronavirus HKU4. Settings: at 100 µM.

| SMILES | inhibition |
| --- | --- |
| CC(C)(C)NC(=O)C(c1ccsc1)N(C(=O)c1n[nH]c2ccccc12)c1ccc(OC(F)F)cc1 (stereo not given) | 17% |
| Cn1cnc(C(=O)N(c2ccc(C(C)(C)C)cc2)C(C(=O)NC(C)(C)C)c2cccnc2)c1 (stereo not given) | 60% |
| CC(C)(C)NC(=O)C(c1cccc(F)c1)N(C(=O)Cn1nnc2ccccc21)C1CC2CCC1C2 (stereo not given) | 15% |
| O=C(Cn1nnc2ccccc21)N(Cc1ccsc1)c1ccc(-c2cccnc2)cc1 | 90% |
| CC(C)(C)NC(=O)C(c1ccsc1)N(C(=O)Cc1cccnc1)C1CC1 (stereo not given) | 16% |
| CC(C)c1ccc(N(C(=O)c2ccco2)C(C(=O)NC(C)(C)C)c2cccnc2)cc1 (stereo not given) | 34% |
| CC(C)(C)NC(=O)C(c1ccsc1)N(C(=O)Cc1cccc2ccccc12)c1ccc(C(C)(C)C)cc1 (stereo not given) | 15% |
| CC(C)(C)NC(=O)C(c1cccnc1)N(C(=O)c1ccco1)c1ccc(-c2ccccc2C#N)cc1 (stereo not given) | 62% |
| CC(C)(C)NC(=O)C(c1ccsc1)N(C(=O)c1cccc2c1CCCC2)c1ccc(C(C)(C)C)cc1 (stereo not given) | 14% |
| CC(C)COC(=O)Nc1ccc(N(C(=O)Cn2nnc3ccccc32)C(C(=O)NC(C)(C)C)c2ccsc2)cc1 (stereo not given) | 19% |
| CNc1ccc(N(Cc2ccsc2)C(=O)Cn2nnc3ccccc32)cc1 | 91% |
| CC(=O)Nc1ccc(N(C(=O)Cn2nnc3ccccc32)C(C(=O)NC(C)(C)C)c2ccsc2)cc1 (stereo not given) | 53% |
| COCCC(=O)Nc1ccc(N(Cc2ccsc2)C(=O)Cn2nnc3ccccc32)cc1 | 94% |
| CC(=O)Nc1ccc(N(C(=O)Cn2nnc3ccccc32)C(C(=O)NCc2ccccc2)c2cccc(F)c2)cc1 (stereo not given) | 32% |
| Cc1noc(C)c1-c1ccc(N(C(=O)c2ccco2)C(C(=O)NC(C)(C)C)c2cccnc2)cc1 (stereo not given) | 28% |
| CC(=O)Nc1ccc(N(C(=O)Cn2cc([Si](C)(C)C)nn2)C(C(=O)NC(C)(C)C)c2ccsc2)cc1 (stereo not given) | 20% |
| CC(C)(C)NC(=O)C(c1cc[nH]n1)N(C(=O)c1ccco1)c1ccc(C(C)(C)C)cc1 (stereo not given) | 11% |
| COc1ccccc1C(=O)N(c1ccc(C(C)(C)C)cc1)C(C(=O)NC(C)(C)C)c1cccnc1 (stereo not given) | 17% |

| SMILES | inhibition |
| --- | --- |
| CC(C)(C)NC(=O)C(c1ccsc1)N(C(=O)c1ccco1)c1ccc(F)cc1 (stereo not given) | 16% |
| CC(C)(C)NC(=O)C(c1ccsc1)N(C(=O)Cc1c[nH]c2ccccc12)c1ccc(OCF)cc1 (stereo not given) | 25% |
| CC(C)(C)NC(=O)C(c1cccnc1)N(C(=O)c1ccco1)C1CC2CCC1C2 (stereo not given) | 16% |
| CC(C)C(=O)Nc1ccc(N(C(=O)Cn2nnc3ccccc32)C(C(=O)NCc2ccccc2)c2cccc(F)c2)cc1 (stereo not given) | 62% |
| CC(C)c1ccc(N(C(=O)Cc2cccc3ccccc23)C(C(=O)NC(C)(C)C)c2cccnc2)cc1 (stereo not given) | 26% |
| CC(C)(C)NC(=O)C(c1cccnc1)N(C(=O)Cc1c[nH]c2ccccc12)c1ccc(OCF)cc1 (stereo not given) | 52% |
| CC(C)(C)NC(=O)C(c1ccsc1)N(C(=O)Cc1cccc2ccccc12)c1ccc(F)cc1 (stereo not given) | 15% |
| Cc1nccn1CC(=O)N(c1ccc(C(C)(C)C)cc1)C(C(=O)NC(C)(C)C)c1ccsc1 (stereo not given) | 11% |
| CC(C)(C)NC(=O)C(c1ccsc1)N(C(=O)Cn1nnc2ccccc21)c1ccc(NC(=O)c2ccno2)cc1 (stereo not given) | 76% |
| COCC(=O)N(c1ccc(C(C)C)cc1)C(C(=O)NC(C)(C)C)c1cccnc1 (stereo not given) | 23% |
| CC(C)(C)NC(=O)C(c1cccnc1)N(C(=O)c1ccco1)c1ccc(/C=C/c2ccccc2)cc1 (stereo not given) | 21% |
| CC(C)C(=O)Nc1ccc(N(Cc2ccsc2)C(=O)Cn2cc(-c3ccccc3)nn2)cc1 | 25% |
| CC(C)(C)NC(=O)C(c1ccsc1)N(C(=O)c1ccc(C#N)cc1)c1ccc(F)cc1 (stereo not given) | 13% |
| CC(C)(C)NC(=O)C(c1c[nH]nn1)N(C(=O)c1ccco1)c1ccc(C(C)(C)C)cc1 (stereo not given) | 16% |
| CC(C)(C)NC(=O)C(c1cccnc1)N(C(=O)c1ccco1)c1ccc(-c2ccccn2)cc1 (stereo not given) | 15% |
| CC(C)(C)NC(=O)C(c1cccnc1)N(C(=O)c1c[nH]c2ccccc12)C1CC1 (stereo not given) | 49% |
| CC(C)(C)NC(=O)C(c1cccnc1)N(C(=O)c1ccco1)c1ccc(OC(F)F)cc1 (stereo not given) | 31% |

Reference: ChEMBL document CHEMBL3603819, “Targeting zoonotic viruses: Structure-based inhibition of the 3C-like protease from bat coronavirus HKU4--The likely reservoir host to the human coronavirus that causes Middle East Respiratory Syndrome (MERS)” (Bioorg Med Chem, 2015)
